Assay results taken from patent US20230118142A1, “AGENTS FOR USE IN THE TREATMENT OF TISSUE DAMAGE” (UCL BUSINESS LTD, priority 2020, published 2023).
Where “and” joins values, the source holds several entries; their conditions need not be identical. Equal entries are not always repeated.

Columns and labels:
CRP [1] = target: T1, CRP (Homo sapiens, UniProt P02741); assay: Size exclusion chromatography of CRP/ligand cross linking; type: binding; parameters: The final concentrations were 0.73 μM native pentameric CRP; from tissue; conditions: CRP/ligand complex re-chromatographed in absence of free ligand
T1 sequence (P02741 19-224): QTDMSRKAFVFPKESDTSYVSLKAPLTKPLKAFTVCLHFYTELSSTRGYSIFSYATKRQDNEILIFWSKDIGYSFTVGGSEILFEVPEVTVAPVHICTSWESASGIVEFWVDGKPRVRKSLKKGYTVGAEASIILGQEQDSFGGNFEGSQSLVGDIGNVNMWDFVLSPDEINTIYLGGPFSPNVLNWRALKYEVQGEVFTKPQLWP
Procedure: (i) Ligands were diluted to 0.5 mM in TC buffer from up to 10 mM stocks. Serial dilutions were prepared as required. […]
(iii) The complex was chromatographed on a Superdex200 column (10/300 GL; 24 ml bed volume), connected to the ÅKTA100 Explorer HPLC system, and equilibrated and eluted in TC buffer at 0.5 ml/min. Eluates were monitored at 280 nm and fractions (0.5 ml) collected as required.
Size exclusion chromatography on a Superdex 200 column equilibrated and eluted with TC buffer pH 8.0, and calibrated with standard globular marker proteins and with human CRP, the native CRP pentamer (Mr 115 kDa) eluted at 13.9 ml (range 13.7-14.0 ml, n=10).

CRP [2] = target: T1, CRP; assay: Roche immunoturbidimetric assay: pure CRP; type: binding; parameters: The final concentrations were 0.73 μM native pentameric CRP; from tissue; conditions: pure CRP in TC buffer; read-out: IC50 (μM), SD; inhibition of Roche CRP immunoreactivity
Procedure: (i) Human CRP at ˜90 μg/ml (3.9 μM monomer or 0.78 μM pentamer) in TC buffer was prepared from a stock solution; a 75 μl aliquot was used in the assay.
(ii) Compounds were prepared from stock solutions at up to 10 mM in TC (labelled S1). They were serially diluted with TC buffer (100 μl ligand+200 μl TC) to provide up to 9 dilutions, S2-S10. A TC buffer control (S0) was included in each assay.
(iii) A 15 μl volume of each ligand solution was incubated with 75 μl of CRP for 1 h at 37° C. The final concentrations were CRP pentamer=0.73 μM, ligands S1-S10=625-0.03 μM, corresponding to ligand:CRP pentamer ratios of 853-0.04.
(iv) CRP concentrations were measured by the Roche microparticle-enhanced immunoturbidimetric assay (10) on the COBAS MIRA autoanalyser, and results expressed as a percentage of the CRP control.
(v) Data were plotted using Sigmaplot (V14) using the 4 parameter logistic curve y=min+(max−min)/(1+(x/EC50)^−Hill slope) to calculate EC50.
(vii) All compounds were assayed in comparison with a highly purified preparation of BPC8, that was prepared by Carbogen AMCIS AG, dissolved in sterile water and diluted into TC buffer as required.
The immunoturbidimetric CRP assay on the Roche COBAS MIRA Plus autoanalyser, utilises two different sized microparticles that are covalently coupled with two different monoclonal antibodies, which recognise different CRP epitopes. The assay was developed by Roche for clinical measurement of CRP serum and plasma with high sensitivity and a very wide dynamic range. Serendipitously, one of the two antibodies binds to an epitope present on the ligand binding B-face of CRP. Thus, when the binding pocket is occupied by ligand and, especially, when the B-face is occluded by the B-face to B-face interaction of two native CRP pentamers produced by cross linking via our unique bivalent ligands, the assay fails to detect the CRP. In contrast, the CRP is all detected and assayed normally by other assays that disrupt the crosslinking and/or use antibodies which recognise different, non-occluded, epitopes. Inhibition of CRP recognition in the Roche assay is thus a convenient tool to monitor the efficacy and potency of complex formation between our unique ligands and CRP.

CRP [3] = target: T1, CRP; assay: In vivo clearance of CRP/ligand complexes generated in vivo in mice; parameters: The final concentrations were 0.73 μM native pentameric CRP; from tissue
Procedure: (i) Two groups of 8 wild-type C57BL/6 mice (male; 23-27 weeks old) were used: group 1 (control) and group 2 (treated).
(§1) (ii) Both groups of animals were given 200 μl of human CRP (5 mg/ml in azide-free TC buffer) subcutaneously on day 1.
(iii) On day 2 (+18 h), control animals were given a 200 μl intravenous bolus of TC buffer. Treated animals were given a 200 μl iv bolus of ligand (prepared at 5 mg/ml in TC buffer).
(iv) One timed blood sample and a terminal blood sample were collected from each mouse into heparinised tubes and weighed. This generated data in quadruplicate at 4 time points, normally 30, 60, 120 and 360 minutes.
(v) ^125I radiolabel was measured (Perkin Elmer Wizard; protocol #1) in whole blood to quantify total CRP. In some cases, electroimmunoassay as above was also used to determine total CRP concentration.
(vi) Plasma was prepared and free CRP determined by Roche immunoassay.
(§2) Subcutaneous injection of human CRP provided circulating CRP concentrations with which to test for effects of our ligands in vivo. (Table 4).

CRP [4] = target: T1, CRP; assay: In vivo clearance of preformed CRP/ligand complexes in mice; parameters: from tissue
Procedure: (i) CRP at 1 mg/ml in azide-free TC buffer (containing, in some experiments, ˜10^6 cpm/ml of ^125I-CRP) was incubated with a 5-fold molar excess of ligand. A control (ligand-free) sample was also prepared. Cross linking of CRP was confirmed by SEC in TC buffer of a small sample of complex.
(ii) Two groups of eight wild-type C57BL/6 mice (male; 23-27 weeks old) were used.
The complex or control (200 μl, 200 μg CRP) was injected into the tail vein of each mouse. A single timed collection of blood was taken from the tail vain of each mouse; a second terminal sample was also collected. This yielded 4 samples each at 30, 60, 120 and 180 min for control and treated groups.
(iii) Blood samples were weighed and CRP measured in the Roche assay and, in some cases by electroimmunoassay (4, 13). ^125I-CRP was measured by gamma counting (Perkin Elmer Wizard; protocol #1).
Complexes were prepared in vitro using ^125I-labelled CRP and an excess of ligand, and the mixture was then injected intravenously into mice. Clearance of CRP was monitored by counting of the ^125I-CRP tracer and stable CRP-ligand complexes were detected by lack of CRP detection in the Roche assay of the plasma samples. The formation of CRP/ligand complexes was confirmed by size exclusion chromatography before use in each in vivo experiment.

CRP [5] = target: T1, CRP; assay: MIRA immunoturbidimetric assay; type: binding; parameters: The final concentrations were 0.73 μM native pentameric CRP; from tissue
From the text: The CRP immunoturbidimetric assay on the Roche COBAS MIRA Plus autoanalyser, utilises two different sized latex particles that are covalently coupled with two different monoclonal antibodies with specificity for different CRP epitopes (10). The assay was validated by Roche for measurement of native pentameric CRP, for which it has high sensitivity and specificity and a high upper detection limit; it was calibrated against a standard produced in our laboratory. Serendipitously, one of the assay's antibodies binds to an epitope present on the ligand binding B face of CRP. […]
CRP concentrations were measured in the presence and absence of ligands by the COBAS MIRA autoanalyser. […] CRP concentration was determined spectrophotometrically (Beckman Coulter DU 650) in quartz cuvettes with a 1 cm light path, by measuring A280 after correction for absorbance at 320 nm (light scattering) and using the measured absorption coefficient A(1%, 1 cm)=17.5 for human CRP (7). […]
Data are expressed as measured CRP (mg/L) against final total ligand concentration (M) and were plotted using Sigmaplot (V14) using the 4 parameter logistic curve y=min+(max−min)/(1+(x/EC50)^−Hill slope) to calculate EC50. Where appropriate, samples were also measured in whole normal human serum following the addition of a known amount of human CRP. […]

[6] = Circulating CRP concentrations after subcutaneous CRP in mice; type: in vivo; conditions: individual mice
Procedure: as §1, §2

Row | Compound | Stable to rechromatography (CRP [1]) | IC50 (CRP [2]) | IC50 (CRP [5]) | further results
1 | O=C(O)C(NC(=O)[C@H]1CC[C@H](C(=O)NC(C(=O)O)[C@H]2CN3CCC2CC3)CC1)[C@H]1CN2CCC1CC2 (stereo partly drawn) [Compound P2B-H, 2-[[4-[[-carboxy-[(3R)-quinuclidin-3-yl]methyl]carbamoyl]cyclohexanecarbonyl]amino]-2-[(3R)-quinuclidin-3-yl]acetic acid] | Yes | 0.6 µM |  | Time complex generated in vivo was partially stable (CRP [3]): at least 3 hours
2 | O=C(NC([C@H]1CN2CCC1CC2)P(=O)(O)OCc1ccccc1)c1ccc(C(=O)NC([C@H]2CN3CCC2CC3)P(=O)(O)OCc2ccccc2)cc1 (some centres unmarked) [Compound P3A-C] |  | 0.91 µM |  | Time complexes stable in vivo (CRP [4]; complexes formed in vitro): at least 6 hours
3 | O=C(NC(C(=O)O)[C@H]1CN2CCC1CC2)c1cccc(C(=O)NC(C(=O)O)[C@H]2CN3CCC2CC3)c1 (stereo partly drawn) [Compound P2B-E, 2-[[3-[[carboxy-[(3R)-quinuclidin-3-yl]methyl]carbamoyl]benzoyl]amino]-2-[(3R)-quinuclidin-3-yl]acetic acid] |  |  | 2.02 µM | 
4 | O=C(NC(C(=O)O)[C@H]1CN2CCC1CC2)c1ccc(C(=O)NC(C(=O)O)[C@H]2CN3CCC2CC3)cc1 (stereo partly drawn) [Compound P2B-B, (R,2R,2′R)-2,2′-(terephthaloylbis(azanediyl))bis(2-((R)-quinuclidin-3-yl)acetic acid)] | Yes | 0.64 ± 0.17 µM | 0.6 µM | Time CRP:ligand complex generated in vivo was stable (CRP [3]): at least 1 hour
5 | CRP: Human C-reactive protein, isolated and purified, injected into mice |  |  |  | Circulating CRP concentration ([6]; 16 h after subcutaneous 1 mg CRP): 58.2 mg/L and 69.2 mg/L; Circulating CRP concentration ([6]; 18 h after subcutaneous 1 mg CRP): 44.0 mg/L and 57.2 mg/L; Circulating CRP concentration ([6]; 24 h after subcutaneous 1 mg CRP): 24.0 mg/L and 32.2 mg/L; t1/2 of clearance of CRP (CRP [4]; intravenous, 125I-CRP tracer): ~2.17 h
